# Source: paper PMC4628094, “In Vitro Assessment of Uptake and Lysosomal Sequestration of Respiratory Drugs in Alveolar Macrophage Cell Line NR8383” (Pharmaceutical Research, 2015)
# Like-named read-outs stand apart in the source and are kept apart here. Marks after values point to notes of the source that are not given here.
# Experiments:
# NR8383 cell line = tested on: NR8383 cell line; design: method as in ref (11) (a number printed in a supplementary file, which may have a reference list of its own: not looked up in the article's list); conditions: NH4Cl 10 mM, drug 50 µM, 120 min; ref (11); cited from earlier work
# [1] = tested on: Liver tissue slices from male Wistar rats; design: method as in ref (9) (a number printed in a supplementary file, which may have a reference list of its own: not looked up in the article's list); conditions: NH4Cl 20 mM, drug 5 µM, 60 min, ref (9); cited from earlier work
# [2] = tested on: Lung granule fraction containing lysosomes from male Wistar rats; design: method as in ref (6) (a number printed in a supplementary file, which may have a reference list of its own: not looked up in the article's list); conditions: NH4Cl 10 mM, drug 1 µM, 10 min; ref (6); cited from earlier work
# [3] = tested on: Lung tissue slices from male Wistar rats; design: method as in ref (9) (a number printed in a supplementary file, which may have a reference list of its own: not looked up in the article's list); conditions: NH4Cl 20 mM, drug 5 µM, 60 min, ref (9); cited from earlier work
# [4] = tested on: Lung tissue slices from male Wistar rats; design: method as in ref (5) (a number printed in a supplementary file, which may have a reference list of its own: not looked up in the article's list); conditions: NH4Cl 20 mM, drug 5 µM, 60 min, ref (5); cited from earlier work
# [5] = tested on: isolated perfused lungs of rats; conditions: depending on concentration, ref ([37],[43],[44]); cited from earlier work
# [6] = tested on: Lung tissue slices from male Wistar rats; design: method as in ref (8) (a number printed in a supplementary file, which may have a reference list of its own: not looked up in the article's list); conditions: NH4Cl 20 mM, drug 5 µM, 60 min, ref (8); cited from earlier work
# [7] = tested on: Lysosomes isolated from male Wistar rat liver; design: method as in ref (4) (a number printed in a supplementary file, which may have a reference list of its own: not looked up in the article's list); conditions: 10 min, ref (4), cited from earlier work
# NR8383 cells [8] = tested on: NR8383 cells
# [9] = tested on: Primary rat cerebellar neurons; design: method as in ref (15) (a number printed in a supplementary file, which may have a reference list of its own: not looked up in the article's list); conditions: drug 10^-4 µM, 30 min, ref (15), cited from earlier work
# [10] = tested on: Lung tissue slices from male Wistar rats; design: method as in ref (14) (a number printed in a supplementary file, which may have a reference list of its own: not looked up in the article's list); conditions: monensin 10 µM, drug 5 µM, 60 min, ref (14); cited from earlier work
# [11] = tested on: Brain slices from male Wistar rats; design: method as in ref (10) (a number printed in a supplementary file, which may have a reference list of its own: not looked up in the article's list); conditions: drug 5 µM, 60 min, ref (10), cited from earlier work
# [12] = tested on: Liver tissue slices from male Wistar rats; design: method as in ref (5) (a number printed in a supplementary file, which may have a reference list of its own: not looked up in the article's list); conditions: NH4Cl 20 mM, drug 5 µM, 60 min, ref (5); cited from earlier work
# [13] = tested on: Liver tissue slices from male Wistar rats; design: method as in ref (14) (a number printed in a supplementary file, which may have a reference list of its own: not looked up in the article's list); conditions: monensin 10 µM, drug 5 µM, 60 min, ref (14); cited from earlier work
# [14] = tested on: Lysosomes isolated from male Wistar rat liver; design: method as in ref (16) (a number printed in a supplementary file, which may have a reference list of its own: not looked up in the article's list); conditions: nigericin […], drug 1 µM, 20 min, ref (16), cited from earlier work
# NR8383 cells [15] = experiment: Accumulation (Kp) in NR8383 over a concentration range, two-site binding model; conditions: apparent saturable uptake equilibrium constant, two-site binding model, control
# [16] = tested on: Liver tissue slices from male Wistar rats; design: method as in ref (8) (a number printed in a supplementary file, which may have a reference list of its own: not looked up in the article's list); conditions: NH4Cl 20 mM, drug 5 µM, 60 min, ref (8); cited from earlier work
smiles,measurement,setting,value
CC[C@H]1OC(=O)[C@H](C)C(=O)[C@H](C)[C@@H](O[C@@H]2O[C@H](C)C[C@H](N(C)C)[C@H]2O)[C@](C)(OC)C[C@@H](C)C(=O)[C@H](C)[C@H]2N(CCCCn3cnc(-c4cccnc4)c3)C(=O)O[C@]12C [Telithromycin],Reduction in total uptake (%),NR8383 cell line,80^b %
CN(C)CCCN1c2ccccc2CCc2ccccc21 [Imipramine],Reduction in total uptake (%),[1],62%
same,Reduction in total uptake (%),[2],31%
same,Reduction in total uptake (%),[3],49%
same,Reduction in total uptake (%),[4],59%
same,estimated Kp,[5],17–44
same,Reduction in total uptake (%),[6],35%
same,Reduction in total uptake (%),"[7]; NH4Cl 50 mM, drug 10^-4 µM",70^b %
same,Reduction of total uptake (%),"[7]; nigericin 50 µM, drug 0.001 µM",70^b %
same,cytotoxicity (LDH) compared to positive control,NR8383 cells [8]; drug 50 μM,less than 1%
same,cytotoxicity (LDH) compared to positive control,NR8383 cells [8]; drug 100 μM,less than 1%
same,Reduction of total uptake (%),[9]; monensin 10 µM,83%
same,Reduction of total uptake (%),[9]; monensin […],50%
same,Reduction of total uptake (%),[10],64%
same,Reduction in total uptake (%),[11]; NH4Cl 20 mM,41%
same,Reduction of total uptake (%),[11]; monensin 10 µM,37%
same,Reduction in total uptake (%),[12],58%
same,Reduction of total uptake (%),[13],48%
same,Reduction of total uptake (%),[14]; relative to control with ATP,99%
same,Reduction of total uptake (%),[14]; relative to control without ATP,93%
same,KU1,NR8383 cells [15],0.9 ± 0.3 µM
same,Reduction in total uptake (%),[16],57%
